Results taken from US20070299089A1, “Use of A2A Adenosine Receptor Agonists in the Treatment of Ischemia” (CV THERAPEUTICS, INC., priority 2006, published 2007).
Converted amounts (≈) assume the structure as drawn.

Tests used:
mouse isolated hearts [1] = experiment: Coronary vascular resistance in Langendorff-perfused isolated hearts, Protocol 1 (CPP lowered to 30 mmHg for 20 min, then restored to 65 mmHg); conditions: for increase in CVR during lowering of CPP: n=6, p<0.001
Procedure: (§1) The objective of this example was to determine whether the selective and stable A2A agonist, regadenoson, can prevent or modify coronary microcirculation vasoconstriction during ischemia. To this purpose, in 60 mouse isolated hearts perfused in Langendorff configuration coronary vascular resistance (CVR) was continuously monitored for 70 min during various interventions using two different protocols. In hearts (n=9) perfused at a constant coronary perfusion pressure (CPP) of 65 mmHg CVR remained stable throughout the 70 min of the experiment.
In Protocol 1, CPP was lowered to 30 mmHg at 20 min, maintained for the following 20 min and restored to 65 mmHg for the remaining 30 min. In untreated hearts (n=12), lowering CPP for 20 min increased CVR up to a maximum of 191%±9 above baseline (P<0.001).

Solubility in water = format: physicochemical
Procedure: In one aspect of this invention, mammalian ischemia is treated with a pharmaceutical composition including CVT-3146—regadenoson. Regadenoson has solubility in water of about 50 micrograms/mL. Therefore, regadenoson can be dissolved and administered in water so long as the desired weight amount of regadenoson can be administered in an acceptable volume. For example, a dose of about 400 micrograms can be administered in 8 mL of water. If this volume is too great for administration purposes, or if the pharmaceutical composition will be stored at other than room temperature (RT), then additional ingredients can be added to the composition to increase the solubility of regadenoson in the composition and/or to provide the resulting pharmaceutical composition with other improved properties such as improved stability and storage properties.

mouse isolated hearts [2] = experiment: Coronary vascular resistance in Langendorff-perfused isolated hearts, Protocol 2 (CPP lowered to 30 mmHg and maintained for 50 min); conditions: n=6
Procedure: as §1
In Protocol 2, CPP was lowered to 30 mmHg at 20 min and maintained for the remaining 50 min. In untreated hearts (n=9), the sustained lowering of CPP was accompanied by a progressive rise in CVR up to the end of the experiment when it reached a maximum of 240%±21 above baseline. Addition of regadenoson (10 nM) to the perfusate either at 10 (n=6) or 30 (n=6) min after lowering CPP caused a rapid and progressive vasodilation thereby bringing CVR to baseline values within 10 min. In summary, the isolated heart reacts to lowering of CPP with a progressive and severe vasoconstriction that can be prevented by pre-treatment with an A2A agonist.

Question: With `CNC(=O)c1cnn(-c2nc(N)c3ncn([C@@H]4O[C@H](CO)[C@@H](O)[C@H]4O)c3n2)c1` [regadenoson, (1-{9-[(4S,2R,3R,5R)-3,4-dihydroxy-5-(hydroxymethyl)oxolan-2-yl]-6-aminopurin-2-yl}pyrazol-4-yl)-N-methylcarboxamide] as the compound, how does the “maximum increase in CVR above baseline during lowering of CPP” value (mouse isolated hearts [1]; regadenoson 3 nM, CPP 30 mmHg for 20 min, n=6, untreated hearts 191%±9) read?
Answer: 131%±15

Question: And the “elevated CVR remaining after restoring CPP to 65 mmHg” value (“elevated CVR remaining” for short) (mouse isolated hearts [1]; regadenoson 3 nM, untreated hearts 153%±10 above baseline)?
Answer: significantly reduced

Question: And the “increase in CVR during lowering of CPP” value (mouse isolated hearts [1]; regadenoson 10 nM, CPP 30 mmHg for 20 min)?
Answer: abolished the increase in CVR

Question: And the “elevated CVR remaining” value (mouse isolated hearts [1]; regadenoson 10 nM, p<0.01)?
Answer: abolished

Question: What about the “increase in CVR during lowering of CPP” value (mouse isolated hearts [1]; regadenoson 30 nM, CPP 30 mmHg for 20 min) of the same compound?
Answer: abolished the increase in CVR

Question: What about the “elevated CVR remaining” value (mouse isolated hearts [1]; regadenoson 30 nM, p<0.01) of the same compound?
Answer: abolished

Question: What about the solubility (Solubility in water) of the same compound?
Answer: ~50 µg/mL (≈ 128 µM)

Question: And the “time to bring CVR to baseline values” (mouse isolated hearts [2]; regadenoson 10 nM added to perfusate 10 min after lowering CPP)?
Answer: ≤ 10 min

Question: And the “time to bring CVR to baseline values” (mouse isolated hearts [2]; regadenoson 10 nM added to perfusate 30 min after lowering CPP)?
Answer: ≤ 10 min
